Laboratory results from publication PMC4877593, “Design and Synthesis of Potent in Vitro and in Vivo Anticancer Agents Based on 1-(3′,4′,5′-Trimethoxyphenyl)-2-Aryl-1H-Imidazole” (Scientific Reports, 2016).
Like-named read-outs stand apart in the source and are kept apart here.

How the values were obtained:
[1] = tested on: BL6-B16 mouse melanoma cell line; assay: Mouse allograft (syngeneic) tumor model; format: in vivo; details: for reduction of tumor mass: doses on days 9, 11 and 14, C57BL/6 mice
Method: […] As reference compound, CA-4P (1b) was used at 30 mg/kg. The BL6-B16 mouse melanoma cell line, injected subcutaneously in syngeneic C57/BL6 mice, is able to proliferate and generate tumor masses.
Figure 9 Inhibition of mouse allograft growth in vivo by compound 4o. Male C57BL/6 mice were injected subcutaneously at their dorsal region with […] BL6-B16 murine melanoma cells. […] Injections were given intraperitoneally at the days indicated by the arrows. Data are presented as mean ± SEM of tumor volume at each time point for 5 animals per group. *p < 0.05, **p < 0.01 ***p < 0.001 vs. control.
Six week old C57BL/6 mice (Charles River, Calco) were injected subcutaneously into the dorsolateral flank with 2.5 × 10^5 BL6-B16 murine melanoma cells in 200 μL-total volume of PBS. When tumors were palpable, animals were treated intraperitoneally every other day with different doses of test compounds dissolved in 50 μL of DMSO. Tumors were measured in two dimensions, and tumor volume was calculated according to the formula V = (D × d^2)/2, where D and d are the major and minor perpendicular tumor diameters, respectively.

MCF-7 = assay: In vitro antiproliferative activity (MTT), MCF-7; format: cell-based; details: Homo sapiens, MCF7, tumor cell proliferation, 72 h, mean ± SE
Method: (§1) Human T-cell leukemia (CCRF-CEM and Jurkat) and human B-cell leukemia (SEM) cells were grown in RPMI-1640 medium (Gibco, Milano, Italy). Breast adenocarcinoma (MCF7), human cervix carcinoma (HeLa), and human colon adenocarcinoma (HT-29) cells were grown in DMEM medium (Gibco, Milano, Italy), all supplemented with 115 units/mL penicillin G (Gibco, Milano, Italy), 115 μg/mL streptomycin (Invitrogen, Milano, Italy), and 10% fetal bovine serum (Invitrogen, Milano, Italy). Stock solutions (10 mM) of the different compounds were obtained by dissolving them in dimethyl sulfoxide (DMSO). Individual wells of a 96-well tissue culture microtiter plate were inoculated with 100 μL of complete medium containing 8 × 10^3 cells. The plates were incubated at 37 °C in a humidified 5% CO2 incubator for 18 h prior to the experiments. After medium removal, 100 μL of fresh medium containing the test compound at different concentrations was added to each well in triplicate and incubated at 37 °C for 72 h. The percentage of DMSO in the medium never exceeded 0.25%. This was also the maximum DMSO concentration in all cell-based assays described below. […] Different concentrations of the test compounds were added, and viability was determined 72 h later by the MTT test. For cytotoxicity evaluations in resting PBL cultures, non-adherent cells were resuspended (5 × 10^5 cells/mL) and treated for 72 h with the test compounds, as described above.

HL-60 = assay: In vitro antiproliferative activity (MTT), HL-60; format: cell-based; details: Homo sapiens, tumor cell proliferation, 72 h, mean ± SE
HeLa [2] = assay: Annexin-V/PI apoptosis assay, HeLa; format: cell-based, human; details: 24 h, lowest concentration used (50 nM)
Method: (§2) To evaluate the induction of apoptosis by compound 4o in two cell lines (HeLa and Jurkat), we used an annexin-V/PI assay. Dual staining for annexin-V and with PI permits discrimination between live cells (annexin-V^−/PI^−), early apoptotic cells (annexin-V^+/PI^−), late apoptotic cells (annexin-V^+/PI^+) and necrotic cells (annexin-V^−/PI^+).
(§3) Cell death was determined by flow cytometry of cells double stained with annexin V/FITC and PI. The Coulter Cytomics FC500 (Beckman Coulter) was used to measure the surface exposure of phosphatidyl serine on apoptotic cells according to the manufacturer’s instructions (Annexin-V Fluos, Roche Diagnostics).

HeLa cells = assay: Cell cycle distribution by flow cytometry (PI), HeLa; format: cell-based, human
Method: The effects of a 24 h treatment with different concentrations of 4o on cell cycle progression in Jurkat, and HeLa cells were determined by flow cytometry, following propidium iodide (PI) staining of the cells (Fig. 4, Panels A,B). […] In the HeLa cells, the G2/M block was accompanied by a significant reduction of both G1 and S phase cells. In order to determine whether 4o was able to block cells at the mitotic phase (M), cells were stained with an immunofluorescent antibody to p-histone H3, a well known mitotic marker, as well as PI, and analyzed by flow cytometry. As shown in Fig. 4 (Panel C), in which representative histograms are presented, Hela cells arrested in M phase by treatment with 4o are readily distinguished from G2 cells by the higher level of p-histone H3. In particular, treatment with 4o induced an increase in the percentage of mitotic cells from the 2% observed in untreated cells to about 30% with both 50 and 100 nM 4o at 24 h (Fig. 4, Panel D).
5 × 10^5 HeLa or Jurkat cells were treated with different concentrations of the test compounds for 24 h. After the incubation period, the cells were collected, centrifuged, and fixed with ice-cold ethanol (70%). […] Samples were analyzed on a Cytomic FC500 flow cytometer (Beckman Coulter). DNA histograms were analyzed using MultiCycle for Windows (Phoenix Flow Systems).

Jurkat = assay: Annexin-V/PI apoptosis assay, Jurkat; format: cell-based, human; details: 24 h, lowest concentration used (50 nM)
Method: as §2, §3

HeLa [3] = assay: In vitro antiproliferative activity (MTT), HeLa; format: cell-based; details: Homo sapiens, tumor cell proliferation, 72 h, mean ± SE
Method: as §1

[4] = tested on: PBL not stimulated with PHA; assay: Cytotoxicity in resting peripheral blood lymphocytes; format: cell-based; details: Homo sapiens, Lymphocyte, PBL from healthy donors, 72 h, MTT, read-out: IC50 PBLresting
Method: This value was almost 600 times higher than that observed against the Jurkat lymphoblastic cell line.
as §1, with “For cytotoxicity evaluations in resting PBL cultures, non-adherent cells were resuspended (5 × 10^5 cells/mL) and treated for 72 h with the test compounds, as described above.” left out

bovine brain tubulin = assay: Inhibition of tubulin polymerization (turbidimetry); format: biochemical
Method: To evaluate the effect of the compounds on tubulin assembly in vitro[22], varying concentrations of compounds were preincubated with 10 μM bovine brain tubulin in glutamate buffer at 30 °C and then cooled to 0 °C. After addition of 0.4 mM GTP (final concentration), the mixtures were transferred to 0 °C cuvettes in a recording spectrophotometer equipped with an electronic temperature controller and warmed to 30 °C. Tubulin assembly was followed turbidimetrically at 350 nm. […] The ability of the test compounds to inhibit colchicine binding to tubulin was measured as described, except that the reaction mixtures contained 1 μM tubulin, 5 μM [^3H]colchicine and 1 or 5 μM test compound.

[5] = highest dose (7.5 mg/kg i.p.), mice, data not shown

## CCOc1ccc(-c2nccn2-c2cc(OC)c(OC)c(OC)c2)cc1Cl [Compound 4o, 2-(3′-Chloro-4′-ethoxyphenyl)-1-(3′,4′,5′-trimethoxyphenyl)-1H-imidazole]
[1]; 1 mg/kg i.p.
  reduction of tumor mass: 26.0%
[1]; 3.5 mg/kg i.p.
  reduction of tumor mass: 32.2%
[1]; 7.5 mg/kg i.p.
  reduction of tumor mass: 45.8%
[1]; [5]
  animal body weight: did not cause a decrease in animal body weight
  signs of toxicity: did not present any sign of toxicity
MCF-7
  IC50: 0.7 ± 0.06 nM
HL-60
  IC50: 1.8 ± 0.6 nM
HeLa [2]
  annexin-V positive cells: significant accumulation of annexin-V positive cells
HeLa cells; 24 h treatment
  lowest concentration with a rise in G2/M cells: 25 nM
HeLa cells; highest concentration, 24 h
  cells arrested in G2/M: more than 80%
Jurkat
  annexin-V positive cells: significant accumulation of annexin-V positive cells
HeLa [3]
  IC50: 3.8 ± 0.7 nM
[4]
  IC50: > 10000 nM
Bovine brain tubulin; repeated beside the calculated energies, read-out: inhibition of tubulin polymerization IC50 (Table 4)
  IC50: 870 nM
Bovine brain tubulin; tubulin at 10 μM, 20 min incubation, read-out: Tubulin assembly IC50 ± S.D.
  IC50: 870 nM
